The results in this text go back to ChEMBL document CHEMBL1143244, “Conformational studies of 3-amino-1-alkyl-cyclopentane carboxamide CCR2 antagonists leading to new spirocyclic antagonists” (Bioorg Med Chem Lett, 2008).

The inhibition is the drop in the measured response relative to a control, in per cent. Lower therefore signals a response near the control. In general, IC50 refers to the concentration at which inhibition is half-maximal. A high value points to a need for much substance.

Experiment [1] deals with T1, C-C chemokine receptor type 2 (Homo sapiens, UniProt P41597). As to the kind of experiment: Displacement of [125I]MCP1 from human CCR2 expressed in human monocytes at 1 uM. It is filed as cell-based. (In general: Loss of bound radioactivity is the signal in a displacement assay; it reports binding, not function.)
Target sequence in this assay (P41597 whole entry, looked up): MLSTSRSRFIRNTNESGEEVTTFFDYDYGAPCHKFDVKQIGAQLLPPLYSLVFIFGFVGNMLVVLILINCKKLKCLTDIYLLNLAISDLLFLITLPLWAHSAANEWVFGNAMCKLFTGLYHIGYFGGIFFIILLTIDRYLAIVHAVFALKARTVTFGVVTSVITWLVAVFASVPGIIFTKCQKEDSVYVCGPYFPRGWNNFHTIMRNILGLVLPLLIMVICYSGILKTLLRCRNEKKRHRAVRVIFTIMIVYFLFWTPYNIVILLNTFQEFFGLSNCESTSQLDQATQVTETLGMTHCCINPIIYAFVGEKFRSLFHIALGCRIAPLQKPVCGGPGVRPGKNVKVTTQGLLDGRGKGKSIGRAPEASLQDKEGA
Experiment [2] deals with T1, C-C chemokine receptor type 2. Briefly: Displacement of [125I]MCP1 from human CCR2 expressed in human monocytes. It counts as cell-based.
Target sequence in this assay (P41597 whole entry): as the sequence (P41597 whole entry, looked up) above

`C[C@H]1CN([C@@H]2CCC3(CCN(Cc4cc(F)cc(C(F)(F)F)c4)C3=O)C2)CC[C@@]12C=Cc1ccccc12` (some centres undefined): the inhibition in experiment [1] is 18%. Regarding `C[C@H]1CN([C@@H]2CC[C@@]3(CCO[C@@H]3OCc3cc(F)cc(C(F)(F)F)c3)C2)CC[C@@]12C=Cc1ccccc12`, the 50% inhibitory concentration (IC50) in experiment [2] stood at 115 nM.

`C[C@H]1CN([C@@H]2CC[C@@]3(CCO[C@H]3OCc3cc(F)cc(C(F)(F)F)c3)C2)CC[C@@]12C=Cc1ccccc12` displayed an IC50 in experiment [2] of 4.6 nM.

Turning to `CC(C)[C@]1(C(=O)NCc2cc(F)cc(C(F)(F)F)c2)CC[C@@H](N2CC[C@@]3(C=Cc4ccccc43)[C@@H](C)C2)C1`, the IC50 in experiment [2] was found to be 1.4 nM.
